Patent EP1053749A1, “PREVENTIVES AND REMEDIES FOR NEURON DIGENERATION-ASSOCIATED DISEASEAS” (priority 1998, dated 1999)

Columns and labels:
cerebellar granule cells [1] = assay: DNA fragmentation analysis after exposure to NO donors; format: cell-based, rat; conditions: pre-treatment of NO-treated cells
cerebellar granule cells [2] = assay: MTT assay (mitochondrial activity) after exposure to GSNO; format: cell-based, rat; conditions: Figure 3
cerebellar granule cells [3] = assay: cellular ATP content by HPLC after exposure to peroxynitrite; format: cell-based, rat; conditions: pretreatment; exposure to peroxynitrite for 30 min, Figure 9
acute toxicity (LD50) = conditions: rat, in vivo
cerebellar granule cells [4] = assay: NO donor-induced apoptosis, morphological studies; format: cell-based, rat; conditions: 25 µmol/L; 24-hour exposure to GSNO or SNP (100-250 µmol/L)
cerebellar granule cells [5] = assay: DNA fragmentation after exposure to peroxynitrite; format: cell-based, rat; conditions: peroxynitrite-treated cells
cerebellar granule cells [6] = assay: cell viability by trypan blue exclusion after exposure to NO donors; format: cell-based, rat; conditions: exposure to NO donors (100 µmol/L SNP or GSNO), Figure 2
cerebellar granule cells [7] = assay: cell membrane fluidity by ESR spin labeling after exposure to peroxynitrite; format: cell-based, rat; conditions: Figure 8
cerebellar granule cells [8] = assay: peroxynitrite-induced cell death (trypan blue exclusion and MTT assay), Pharmacological Test 1; format: cell-based, rat; conditions: 30-min exposure to 5-10 µmol/L peroxynitrite, assessed after 24-hr culture, Figure 5
cerebellar granule cells [9] = assay: lipid peroxidation (TBA assay) after exposure to peroxynitrite; format: cell-based, rat
cerebellar granule cells [10] = assay: peroxynitrite-induced apoptosis, morphological studies, Pharmacological Test 2; format: cell-based, rat; conditions: for protection from apoptotic death: 100 µM, 30-min exposure to 10 µM peroxynitrite
cerebellar granule cells [11] = assay: cell viability by MTT assay after exposure to peroxynitrite; format: cell-based, rat; conditions: concentration not given, Figure 6
cerebellar granule cells [12] = assay: lipid peroxidation (TBA assay) after exposure to NO donors; format: cell-based, rat; conditions: 24-hr treatment with GSNO or SNP, Figure 4
[13] = unpublished data, contributed to Free Radic. Biol. Med.; cited from earlier work
neuronal membrane = conditions: oxidative stress-induced alteration; unpublished data, contributed to Free Radic. Biol. Med.; cited from earlier work

With `Cc1c(C)c2c(c(C)c1OP(=O)(O)OC1=C(O)[C@@H]([C@@H](O)CO)OC1=O)CCC(C)(CCCC(C)CCCC(C)CCCC(C)C)O2.O=P(O)(O)O` (mixture of isomers) [EPC-K1, L-ascorbic acid 2-[3,4-dihydro-2,5,7,8-tetramethyl-2-(4,8,12-trimethyltridecyl)-2H-1-benzopyran-6-yl-hydrogen phosphate] phosphate salt] the “DNA fragmentation (ladder pattern)” value (cerebellar granule cells [1]) was “prevented DNA from fragmentation”, the “protection of ability of cells to reduce MTT (mitochondrial enzymes)” value (cerebellar granule cells [2]; 8-hr exposure to 100 µmol/L GSNO) was “exhibited no dear protective effects” and the “further dysfunction of mitochondrial enzymes (MTT)” value (cerebellar granule cells [2]; after exposure to 100 µmol/L GSNO) was “prevented mitochondrial enzymes from falling into further dysfunction”. For the same molecule, the “cellular ATP content” value (cerebellar granule cells [3]) was “suppressed the decrease of ATP”, the solubility in water (solubility in water) was “soluble in water” and the LD50 (acute toxicity (LD50); iv) was over 100 mg/kg. The LD50 (acute toxicity (LD50); po) was over 5000 mg/kg, the “protection from apoptotic cell death” value (cerebellar granule cells [4]) was “protected the cells from death” and the “DNA fragmentation (ladder pattern)” value (cerebellar granule cells [5]; 50 µM) was “effectively prevented DNA from fragmentation”. For the same molecule, the “cell viability (trypan blue exclusion)” value (cerebellar granule cells [6]) was “effectively protected the cells from death”, the “cell membrane fluidity (order parameter)” value (cerebellar granule cells [7]; 50 µM) was “prevented the change in cell membrane fluidity” and the “peroxynitrite induced cell death” value (cerebellar granule cells [8]) was “effectively prevented cell death”. For the same molecule, the “formation of TBARS (lipid peroxidation)” value (cerebellar granule cells [9]; 50 µM, Figure 7) was “markedly suppressed”, the “protection from apoptotic death” value (cerebellar granule cells [10]) was “protected from death” and the “protective action against ONOO^--induced apoptosis (comparison)” value (cerebellar granule cells [10]; overall comparison in Pharmacological Test 2) was “more effective than vitamin C or Trolox”. The “cell viability (MTT assay)” value (cerebellar granule cells [11]) was “effectively protected the cells from death”, the “lipid peroxidation (formation of TBARS)” value (cerebellar granule cells [12]) was “effectively inhibited lipid peroxidation” and the scavenging of peroxynitrite [13] was “effective scavenger of peroxynitrite”. The neuronal membrane fluidity (neuronal membrane) was “protects neuronal membrane fluidity from oxidative stress-induced alteration”.

In the case of `Cc1c(C)c2c(c(C)c1O)CCC(C)(C(=O)O)O2` (stereo not shown) [Trolox, 6-Hydroxy-2,5,7,8-tetramethylchroman-2-carboxylic acid], the “cellular ATP content” value (cerebellar granule cells [3]) is reported as “suppressed the decrease of ATP”, the “DNA fragmentation (ladder pattern)” value (cerebellar granule cells [5]; 100 µM) is reported as “exhibited protective effects” and the “cell membrane fluidity (order parameter)” value (cerebellar granule cells [7]; 100 µM) is reported as “did not show significant protective effect”. The “formation of TBARS (lipid peroxidation)” value (cerebellar granule cells [9]; 100 µM) was “markedly inhibited the formation of TBARS” and the “protection from apoptotic death” value (cerebellar granule cells [10]) was “protected from death”.

For `O=C1O[C@H]([C@@H](O)CO)C(O)=C1O` [vitamin C], the “cellular ATP content” value (cerebellar granule cells [3]) was “suppressed the decrease of ATP”, the “DNA fragmentation (ladder pattern)” value (cerebellar granule cells [5]; 100 µM) was “exhibited protective effects” and the “formation of TBARS (lipid peroxidation)” value (cerebellar granule cells [9]; 100 µM) was “markedly inhibited the formation of TBARS”. The “protection from apoptotic death” value (cerebellar granule cells [10]) was “protected from death”.
